Test results as given in patent US9458213B2, “Compositions and methods for diagnosing prostate cancer based on detection of SLC45A3-ELK4 fusion transcript” (CORNELL UNIVERSITY, priority 2009, dated 2016).

Experiments:
[1] = tested on: endogenous ELK4 mRNA in LNCaP cells; assay: Hormonal treatment of LNCaP cells, quantitative RT-PCR (TAQMAN) of endogenous ELK4; assay type: cell-based, human
Method: (§1) FIGS. 4a-4c. Androgen stimulation of LNCaP cells and induction of SLC45A3-ELK4 (FIG. 4a), endogenous ELK4 (FIG. 4b) mRNA and KLK3 (PSA) mRNA (FIG. 4c). Bar charts are the average fold induction in LNCaP cells treated with 1nM R1881 in the absence (black bars) or presence (gray bars) of 10 μM flutamide at the indicated time points. For flutamide treatment cells were pre-treated 2 hours with 10 μM flutamide, medium was removed and the fresh medium plus 1 nM R1881 plus 10 μM flutamide were given for the indicated time points. All experiments were run in triplicates (standard deviation indicated by the error bars).
(§2) Quantitative RT-PCR using TAQMAN technology. To quantify SLC45A3-ELK4 and endogenous ELK4 transcripts, custom designed primers and probes (SLC45A3-ELK4: primers in SLC45A3 exon 1 and ELK4 exon 2, probe in ELK4 exon 2) were employed in (ELK4, Hs00360812_m1) TAQMAN Gene Expression Assays (Applied Biosystems, Foster City, Calif.) for improved sensitivity and specificity of detection. […] Each target was run in triplicate and expression levels were calculated using the comparative Ct method (ABI Bulletin 2, Applied Biosytems) with TCFL1 as a reference gene and given as fold change over the average expression levels of benign samples. […]

[2] = tested on: SLC45A3-ELK4 mRNA in LNCaP cells; assay: Hormonal treatment of LNCaP cells, quantitative RT-PCR (TAQMAN) of SLC45A3-ELK4 fusion transcript; assay type: cell-based, human
Method: as §1, §2

[3] = LNCaP cells treated with R1881 (summary statement)
[4] = LNCaP cells, R1881 1 nM, twelve hours following treatment

Q: What does the source list for `C[C@]1(O)CC[C@H]2[C@@H]3CCC4=CC(=O)CCC4=C3C=C[C@@]21C` [R1881]?
A: regulation of endogenous ELK4 mRNA upon treatment [1, 3]: not endogenous ELK4 mRNA, was up-regulated; change in ELK4 (assay not targeting the fusion transcript) [1, 4]: no change; regulation of SLC45A3-ELK4 mRNA upon treatment [2, 3]: up-regulated; induction of SLC45A3-ELK4 [2, 4]: 25 fold
